Laboratory results: patent US8192962B2, “Processes for detecting toxic substances” (Daikin Industries, Ltd., priority 2001, dated 2012)

Tested on: Mitochondria-located protein genes
Test: DNA chip mRNA expression in yeast, mitochondria-located protein genes (Table 2)
Format: cell-based, Saccharomyces cerevisiae S288C
Conditions: cells incubated two hours with the chemical substance
Outline: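 Values are treated/untreated fluorescence ratios from a whole-genome yeast DNA chip hybridized over 12 hours at 65° C with Cy3- or Cy5-labelled cDNA from poly(A) mRNA. Log-phase S288C yeast in YPD at 25° C had received a single toxic chemical for two hours, dosed to slow growth without killing.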

For CN(C)C(=S)SSC(=S)N(C)C [(10), Tetramethylthiuram disulfide], the “The level of expressed mRNA in the presence of chemical substance/The level of expressed mRNA in the absence of chemical substance” value (yeast gene YAL039C) was 2.2, the “The level of expressed mRNA in the presence of chemical substance/The level of expressed mRNA in the absence of chemical substance” value (yeast gene YBL022C) was 1.2 and the “The level of expressed mRNA in the presence of chemical substance/The level of expressed mRNA in the absence of chemical substance” value (yeast gene YBL030C) was 0.9. The “The level of expressed mRNA in the presence of chemical substance/The level of expressed mRNA in the absence of chemical substance” value (yeast gene YBL038W) was 1.5, the “The level of expressed mRNA in the presence of chemical substance/The level of expressed mRNA in the absence of chemical substance” value (yeast gene YBL099W) was 0.7 and the “The level of expressed mRNA in the presence of chemical substance/The level of expressed mRNA in the absence of chemical substance” value (yeast gene YBR003W) was 1.3. The “The level of expressed mRNA in the presence of chemical substance/The level of expressed mRNA in the absence of chemical substance” value (yeast gene YBR044C) was 1.2, the “The level of expressed mRNA in the presence of chemical substance/The level of expressed mRNA in the absence of chemical substance” value (yeast gene YBR091C) was 1.6 and the “The level of expressed mRNA in the presence of chemical substance/The level of expressed mRNA in the absence of chemical substance” value (yeast gene YBR122C) was 1.4. For the same compound, the “The level of expressed mRNA in the presence of chemical substance/The level of expressed mRNA in the absence of chemical substance” value (yeast gene YBR185C) was 1.6, the “The level of expressed mRNA in the presence of chemical substance/The level of expressed mRNA in the absence of chemical substance” value (yeast gene YBR221C) was 1.3 and the “The level of expressed mRNA in the presence of chemical substance/The level of expressed mRNA in the absence of chemical substance” value (yeast gene YBR251W) was 1.1. The “The level of expressed mRNA in the presence of chemical substance/The level of expressed mRNA in the absence of chemical substance” value (yeast gene YBR282W) was 0.9, the “The level of expressed mRNA in the presence of chemical substance/The level of expressed mRNA in the absence of chemical substance” value (yeast gene YCL057W) was 2.1 and the “The level of expressed mRNA in the presence of chemical substance/The level of expressed mRNA in the absence of chemical substance” value (yeast gene YCR046C) was 1.4. The “The level of expressed mRNA in the presence of chemical substance/The level of expressed mRNA in the absence of chemical substance” value (yeast gene YCR083W) was 1.8, the “The level of expressed mRNA in the presence of chemical substance/The level of expressed mRNA in the absence of chemical substance” value (yeast gene YDL067C) was 0.9 and the “The level of expressed mRNA in the presence of chemical substance/The level of expressed mRNA in the absence of chemical substance” value (yeast gene YDL181W) was 0.8. The “The level of expressed mRNA in the presence of chemical substance/The level of expressed mRNA in the absence of chemical substance” value (yeast gene YDL198C) was 2.7, the “The level of expressed mRNA in the presence of chemical substance/The level of expressed mRNA in the absence of chemical substance” value (yeast gene YDR079W) was 0.8 and the “The level of expressed mRNA in the presence of chemical substance/The level of expressed mRNA in the absence of chemical substance” value (yeast gene YDR178W) was 0.8. For the same compound, the “The level of expressed mRNA in the presence of chemical substance/The level of expressed mRNA in the absence of chemical substance” value (yeast gene YDR231C) was 1.4, the “The level of expressed mRNA in the presence of chemical substance/The level of expressed mRNA in the absence of chemical substance” value (yeast gene YDR258C) was 13.3 and the “The level of expressed mRNA in the presence of chemical substance/The level of expressed mRNA in the absence of chemical substance” value (yeast gene YDR298C) was 1.6. The “The level of expressed mRNA in the presence of chemical substance/The level of expressed mRNA in the absence of chemical substance” value (yeast gene YDR347W) was 1.6, the “The level of expressed mRNA in the presence of chemical substance/The level of expressed mRNA in the absence of chemical substance” value (yeast gene YDR377W) was 0.9 and the “The level of expressed mRNA in the presence of chemical substance/The level of expressed mRNA in the absence of chemical substance” value (yeast gene YDR529C) was 0.6. The “The level of expressed mRNA in the presence of chemical substance/The level of expressed mRNA in the absence of chemical substance” value (yeast gene YEL024W) was 0.6, the “The level of expressed mRNA in the presence of chemical substance/The level of expressed mRNA in the absence of chemical substance” value (yeast gene YEL039C) was 1.2 and the “The level of expressed mRNA in the presence of chemical substance/The level of expressed mRNA in the absence of chemical substance” value (yeast gene YER178W) was 1.3. The “The level of expressed mRNA in the presence of chemical substance/The level of expressed mRNA in the absence of chemical substance” value (yeast gene YFL016C) was 2.9, the “The level of expressed mRNA in the presence of chemical substance/The level of expressed mRNA in the absence of chemical substance” value (yeast gene YGL018C) was 1.4 and the “The level of expressed mRNA in the presence of chemical substance/The level of expressed mRNA in the absence of chemical substance” value (yeast gene YGL187C) was 0.6. The “The level of expressed mRNA in the presence of chemical substance/The level of expressed mRNA in the absence of chemical substance” value (yeast gene YGL191W) was 1.3, the “The level of expressed mRNA in the presence of chemical substance/The level of expressed mRNA in the absence of chemical substance” value (yeast gene YGR008C) was 2.4 and the “The level of expressed mRNA in the presence of chemical substance/The level of expressed mRNA in the absence of chemical substance” value (yeast gene YGR028W) was 2.0. For the same compound, the “The level of expressed mRNA in the presence of chemical substance/The level of expressed mRNA in the absence of chemical substance” value (yeast gene YGR062C) was 1.4, the “The level of expressed mRNA in the presence of chemical substance/The level of expressed mRNA in the absence of chemical substance” value (yeast gene YGR076C) was 1.8 and the “The level of expressed mRNA in the presence of chemical substance/The level of expressed mRNA in the absence of chemical substance” value (yeast gene YGR082W) was 0.9. For the same compound, the “The level of expressed mRNA in the presence of chemical substance/The level of expressed mRNA in the absence of chemical substance” value (yeast gene YGR174C) was 0.7, the “The level of expressed mRNA in the presence of chemical substance/The level of expressed mRNA in the absence of chemical substance” value (yeast gene YGR244C) was 1.1 and the “The level of expressed mRNA in the presence of chemical substance/The level of expressed mRNA in the absence of chemical substance” value (yeast gene YHR008C) was 2.4. For the same compound, the “The level of expressed mRNA in the presence of chemical substance/The level of expressed mRNA in the absence of chemical substance” value (yeast gene YIL155C) was 2.9, the “The level of expressed mRNA in the presence of chemical substance/The level of expressed mRNA in the absence of chemical substance” value (yeast gene YJL096W) was 1.4 and the “The level of expressed mRNA in the presence of chemical substance/The level of expressed mRNA in the absence of chemical substance” value (yeast gene YJL102W) was 2.2. The “The level of expressed mRNA in the presence of chemical substance/The level of expressed mRNA in the absence of chemical substance” value (yeast gene YJL133W) was 1.4, the “The level of expressed mRNA in the presence of chemical substance/The level of expressed mRNA in the absence of chemical substance” value (yeast gene YJL166W) was 1.2 and the “The level of expressed mRNA in the presence of chemical substance/The level of expressed mRNA in the absence of chemical substance” value (yeast gene YJL180C) was 1.4. The “The level of expressed mRNA in the presence of chemical substance/The level of expressed mRNA in the absence of chemical substance” value (yeast gene YJR045C) was 3.0 and the “The level of expressed mRNA in the presence of chemical substance/The level of expressed mRNA in the absence of chemical substance” value (yeast gene YJR077C) was 0.7.
